Where two headings read alike, the source gives them in different places.
Columns and labels:
[1] = Pharmacokinetic assay in SD rats (plasma and brain tissue); assay type: in vivo; details: rat, po, male SD rats, p.o. 5 mg/kg; for AUC(0-t): read-out: Area under curve AUC0-t; for Tmax: read-out: Peak time tmax; for Cmax: read-out: Plasma concentration Cmax
Experimental: Test Example 4. Pharmacokinetic Assays in SD Rats
SD rats were used as test animals. The in vivo (plasma and brain tissue) pharmacokinetic behavior of the compounds of the present invention was investigated by oral administration of the compound in rats at a dose of 5 mg/kg.
Male SD rats (21 animals per group), purchased from Shanghai JieSiJie Laboratory Animal Co., Ltd., under the Animal Production License Number of SCXK (Shanghai) 2013-0006 No. 311620400001794.
The experimental drug was dissolved in 0.5% CMC-Na (1% Tween 80) by sonication to formulate a clear solution or a homogeneous suspension.
After an overnight fast, male SD rats (21 animals per group) were administered p.o. with the experimental drug at an administration dose of 5 mg/kg and the administration volume of 10 mL/kg.
Rats were sacrificed with CO2 at 0, 0.5, 1, 2, 4, 8 and 24 hours before and after the drug administration. 8 mL of blood was collected by cardiac puncture, placed in EDTA-K2 tubes, and centrifuged at 4° C. at 6,000 rpm for 6 min. Plasma was separated and stored at −80° C. The whole brain tissue was dissected and weighed, and then placed in a 2 mL centrifuge tube and stored at −80° C.
2.6 Sample Processing: • 1) 160 μL of acetonitrile was added to 40 μL of plasma sample for precipitation. After mixing, the sample was centrifuged at 3500×g for 5-20 minutes. • 2) 90 μL of acetonitrile containing internal standard (100 ng/mL) was added to 30 μL of plasma or brain homogenate sample for precipitation. After mixing, the sample was centrifuged at 13,000 rpm for 8 minutes. • 3) 70 μL of water was added to 70 μL of treated supernatant, and mixed by vortex for 10 minutes. Then 20 μL of the sample was analyzed by LC/MS/MS to determine the concentration of the compound to be tested. The LC/MS/MS instrument for analysis was AB Sciex API 4000 Qtrap.
2.7 Liquid Chromatography Analysis: • Liquid chromatography conditions: Shimadzu LC-20AD pump • Chromatographic column: Agilent ZORBAX XDB-C18 (50×2.1 mm, 3.5 μm) Mobile phase: Eluent A was 0.1% formic acid in water, and Eluent B was acetonitrile. • Flow rate: 0.4 mL/min • Elution time: 0-4.0 minutes, the eluate was as follows:
The major pharmacokinetic parameters were calculated by using WinNonlin 6.1, and the results of the pharmacokinetic experiments in rats were shown in Table 3 below: […]

NK3 receptors = biological target: T1, NK3 receptors (Homo sapiens, UniProt P29371); test: Antagonism of IP1 in HEK293 cells with stable expression of NK3; assay type: cell-based; details: agonist Senktide 3 nM, read-out: NK3R IC50 (nM) IP1
T1 construct: expressed in transfected cells
T1 sequence (P29371 1-465): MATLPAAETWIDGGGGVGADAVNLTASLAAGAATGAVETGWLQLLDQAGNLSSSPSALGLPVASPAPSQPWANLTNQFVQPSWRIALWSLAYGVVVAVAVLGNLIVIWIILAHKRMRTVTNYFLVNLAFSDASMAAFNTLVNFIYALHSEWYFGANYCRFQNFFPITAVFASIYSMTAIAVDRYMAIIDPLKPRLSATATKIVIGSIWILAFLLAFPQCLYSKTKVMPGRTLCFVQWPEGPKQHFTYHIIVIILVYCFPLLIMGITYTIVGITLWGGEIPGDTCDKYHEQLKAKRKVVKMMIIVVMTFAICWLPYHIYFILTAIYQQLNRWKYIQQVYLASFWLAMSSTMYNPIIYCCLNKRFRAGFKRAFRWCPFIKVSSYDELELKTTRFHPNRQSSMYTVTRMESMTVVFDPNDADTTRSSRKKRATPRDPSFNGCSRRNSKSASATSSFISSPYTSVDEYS

Row | SMILES | AUC(0-t) ([1]; Brain) [ng·h/mL] | Tmax ([1]; Brain) [h] | Cmax ([1]; Brain) [ng/mL] | AUC(0-t) ([1]; Plasma) [ng·h/mL] | half-life ([1]; Plasma, read-out: Half life t1/2 (converted)) [h] | MRT ([1]; Plasma, read-out: Mean residence time MRT) [h] | Tmax ([1]; Plasma) [h] | Cmax ([1]; Plasma) [ng/mL] | IC50 (NK3 receptors) [nM]
1 | [2H]c1cc(C(=O)N2CCn3c(-c4nc(Cl)ns4)nnc3[C@H]2C)ccc1F [Example 56, (R)-(3-(3-Chloro-1,2,4-thiadiazol-5-yl)-8-methyl-5,6-dihydro-[1,2,4]triazolo[4,3-a]pyrazin-7(8H)-yl)(4-fluorophenyl-3-d)methanone] | 2710 | 1 | 798 | 6150 | 3.1 | 5.1 | 2 | 1170 | 76
2 | C[C@@H]1c2nnc(-c3nc4cnc(Cl)cc4s3)n2CCN1C(=O)c1ccc(F)cc1 [Example 37, (R)-(3-(6-Chlorothiazolo[4,5-c]pyridin-2-yl)-8-methyl-5,6-dihydro-[1,2,4]triazolo[4,3-a]pyrazin-7(8H)-yl)(4-fluorophenyl)methanone] | 4200 | 4 | 1640 | 77800 | – | – | 8 | 4000 | 56.5

From patent US20230271969A1, “NITROGEN-CONTAINING FUSED RING DERIVATIVE INHIBITOR, PREPARATION METHOD THEREFOR AND USE THEREOF” (Shanghai Hansoh Biomedical Co., Ltd., priority 2020, published 2023)
